Results on seven compounds are retold here after ChEMBL document CHEMBL3244168, “Synthesis and antitumor activity of preactivated isophosphamide analogues bearing modified alkylating functionalities” (J Med Chem, 1978).

In data set [1] the test system is L1210. In words: Cytotoxicity against mouse L1210 cells assessed as growth inhibition after 72 hrs. It is filed as functional. The note with it: L1210, 72 h, read-out: ED50 (the source's name).
Data set [2] concerns L1210. As to the kind of experiment: Antileukemic activity against mouse L1210 cells allografted in ip dosed BDF1 mouse administered 24 hrs. It is filed as functional.
In data set [3] the test system is L1210. In words: Ratio of ILSmax to ILS30 for antileukemic activity against mouse L1210 cells allografted in ip dosed BDF1 mouse. In kind it is functional.
Data set [4] concerns L1210. As to the kind of experiment: Antileukemic activity against mouse L1210 cells allografted in ip dosed BDF1 mouse assessed as maximum tolerated dose for survival over 30 days administered 24 hrs. In kind it is functional.
The test system of data set [5] is Mus musculus. As to the kind of experiment: Acute toxicity in iv dosed BDF1 mouse. In kind it is organism-based. The note with it: in vivo.
Data set [6] has as its system Mus musculus. In words: Acute toxicity in ip dosed BDF1 mouse. It is filed as organism-based. The note with it: in vivo.
The subject of data set [7] is Mus musculus. As to the kind of experiment: Acute toxicity in po dosed BDF1 mouse. The note with it: in vivo. It is filed as organism-based.
Data set [8] has as its system Rattus norvegicus. As to the kind of experiment: Acute toxicity in iv dosed Wistar rat. In kind it is organism-based. The note with it: in vivo.
For data set [9], the system named is Rattus norvegicus. In words: Acute toxicity in ip dosed Wistar rat. It is filed as organism-based. The note with it: in vivo.
The test system of data set [10] is Rattus norvegicus. As to the kind of experiment: Acute toxicity in po dosed Wistar rat. The note with it: in vivo. In kind it is organism-based.
Data set [11] deals with L1210. In words: Antileukemic activity against mouse L1210 cells allografted in BDF1 mouse assessed as mean survival time at 2 mg/kg, ip administered 24 hrs (Rvb 4.6 +/- 0.16 days). In kind it is functional. The note with it: route intraperitoneal.
The subject of data set [12] is L1210. As to the kind of experiment: Antileukemic activity against mouse L1210 cells allografted in BDF1 mouse assessed as mean survival time at 10 mg/kg, ip administered 24 hrs (Rvb 4.6 +/- 0.16 days). In kind it is functional. The note with it: route intraperitoneal.
The test system of data set [13] is L1210. As to the kind of experiment: Antileukemic activity against mouse L1210 cells allografted in BDF1 mouse assessed as mean survival time at 50 mg/kg, ip administered 24 hrs (Rvb 4.6 +/- 0.16 days). In kind it is functional. The note with it: route intraperitoneal.
Data set [14] has as its system L1210. As to the kind of experiment: Antileukemic activity against mouse L1210 cells allografted in BDF1 mouse assessed as mean survival time at 100 mg/kg, ip administered 24 hrs (Rvb 4.6 +/- 0.16 days). It is filed as functional. The note with it: route intraperitoneal.
Data set [15] has as its system L1210. In words: Antileukemic activity against mouse L1210 cells allografted in BDF1 mouse assessed as increase in life span at 2 mg/kg, ip administered 24 hrs relative to control. The note with it: route intraperitoneal. It is filed as functional.
The test system of data set [16] is L1210. As to the kind of experiment: Antileukemic activity against mouse L1210 cells allografted in BDF1 mouse assessed as increase in life span at 10 mg/kg, ip administered 24 hrs relative to control. It is filed as functional. The note with it: route intraperitoneal.
The test system of data set [17] is L1210. As to the kind of experiment: Antileukemic activity against mouse L1210 cells allografted in BDF1 mouse assessed as increase in life span at 50 mg/kg, ip administered 24 hrs relative to control. The note with it: route intraperitoneal. It is filed as functional.
The test system of data set [18] is L1210. In words: Antileukemic activity against mouse L1210 cells allografted in BDF1 mouse assessed as increase in life span at 100 mg/kg, ip administered 24 hrs relative to control. In kind it is functional. The note with it: route intraperitoneal.
Data set [19] concerns L1210. As to the kind of experiment: Antileukemic activity against mouse L1210 cells allografted in iv dosed BDF1 mouse assessed as survival over 60 days administered 24 hrs. It is filed as functional. The note with it: read-out: MED.
Data set [20] concerns L1210. In words: Antileukemic activity against mouse L1210 cells allografted in ip dosed BDF1 mouse assessed as survival over 60 days administered 24 hrs. In kind it is functional. The note with it: read-out: MED.
Data set [21] concerns L1210. As to the kind of experiment: Antileukemic activity against mouse L1210 cells allografted in po dosed BDF1 mouse assessed as survival over 60 days administered 24 hrs. The note with it: read-out: MED. It is filed as functional.
Data set [22] relates to L1210. In words: Antileukemic activity against mouse L1210 cells allografted in iv dosed BDF1 mouse assessed as maximum tolerated dose for survival over 60 days administered 24 hrs. It is filed as functional.
For data set [23], the system named is L1210. In words: Antileukemic activity against mouse L1210 cells allografted in ip dosed BDF1 mouse assessed as maximum tolerated dose for survival over 60 days administered 24 hrs. In kind it is functional.
In data set [24] the test system is L1210. In words: Antileukemic activity against mouse L1210 cells allografted in po dosed BDF1 mouse assessed as maximum tolerated dose for survival over 60 days administered 24 hrs. It is filed as functional.
The subject of data set [25] is L1210. In words: Ratio of Cmax to Cmin for antileukemic activity against mouse L1210 cells allografted in iv dosed BDF1 mouse assessed as survival over 60 days. It is filed as functional.
Data set [26] relates to L1210. As to the kind of experiment: Ratio of Cmax to Cmin for antileukemic activity against mouse L1210 cells allografted in ip dosed BDF1 mouse assessed as survival over 60 days. In kind it is functional.
The subject of data set [27] is L1210. In words: Ratio of Cmax to Cmin for antileukemic activity against mouse L1210 cells allografted in po dosed BDF1 mouse assessed as survival over 60 days. In kind it is functional.
Data set [28] deals with L1210. In words: Antileukemic activity against mouse L1210 cells allografted in BDF1 mouse assessed as increase in survivor over 30 days at 100 mg/kg, ip administered 24 hrs. It is filed as functional, organism-based. Details: dose 100 mg/kg.
Data set [29] has as its system L1210. In words: Antileukemic activity against mouse L1210 cells allografted in BDF1 mouse assessed as mean survival time at 70 mg/kg, ip administered 24 hrs (Rvb 4.6 +/- 0.16 days). The note with it: route intraperitoneal. It is filed as functional.
Data set [30] relates to L1210. In words: Antileukemic activity against mouse L1210 cells allografted in BDF1 mouse assessed as mean survival time at 130 mg/kg, ip administered 24 hrs (Rvb 4.6 +/- 0.16 days). It is filed as functional. The note with it: route intraperitoneal.
Data set [31] has as its system L1210. As to the kind of experiment: Antileukemic activity against mouse L1210 cells allografted in BDF1 mouse assessed as mean survival time at 330 mg/kg, ip administered 24 hrs (Rvb 4.6 +/- 0.16 days). In kind it is functional. The note with it: route intraperitoneal.
The subject of data set [32] is L1210. As to the kind of experiment: Antileukemic activity against mouse L1210 cells allografted in BDF1 mouse assessed as mean survival time at 530 mg/kg, ip administered 24 hrs (Rvb 4.6 +/- 0.16 days). In kind it is functional. The note with it: route intraperitoneal.
Data set [33] deals with L1210. In words: Antileukemic activity against mouse L1210 cells allografted in BDF1 mouse assessed as increase in life span at 70 mg/kg, ip administered 24 hrs relative to control. It is filed as functional. The note with it: route intraperitoneal.
The test system of data set [34] is L1210. As to the kind of experiment: Antileukemic activity against mouse L1210 cells allografted in BDF1 mouse assessed as increase in life span at 130 mg/kg, ip administered 24 hrs relative to control. It is filed as functional. The note with it: route intraperitoneal.
Data set [35] relates to L1210. As to the kind of experiment: Antileukemic activity against mouse L1210 cells allografted in BDF1 mouse assessed as increase in life span at 330 mg/kg, ip administered 24 hrs relative to control. It is filed as functional. The note with it: route intraperitoneal.
The subject of data set [36] is L1210. As to the kind of experiment: Antileukemic activity against mouse L1210 cells allografted in BDF1 mouse assessed as increase in life span at 530 mg/kg, ip administered 24 hrs relative to control. It is filed as functional. The note with it: route intraperitoneal.

≈ marks a conversion by molar mass, not a printed value. Calls of active or inactive are those of the source. No cut-off for these calls is given here.

As for `CN(CCBr)P1(=O)OCCC(OO)N1CCCl` (configuration not stated), the EC50 with L1210 [1] was 0.3 µg/mL (≈ 0.853 µM). The ILS30 in the data set with L1210 [2] was determined as 6 mg/kg. For the same compound, the Ratio with L1210 [3] was determined as 12. Further, the ILSmax in the data set with L1210 [4] stood at 70 mg/kg.

As to `CN(CCBr)P1(=O)OCCC(OO)N1CCOS(C)(=O)=O` (configuration not stated), the EC50 with L1210 [1] worked out at 1 µg/mL (≈ 2.43 µM). In the data set on L1210 [2], this compound returned an ILS30 of 3 mg/kg. Moreover, the Ratio in the data set with L1210 [3] is recorded as 20. Besides, in the data set with L1210 [4], the ILSmax is 60 mg/kg.

Consider `CN(CCCl)P1(=O)OCCC(OO)N1CCBr` (configuration not stated), for which, in the data set on L1210 [1], the EC50 was determined as 0.5 µg/mL (≈ 1.42 µM). Moreover, the ILS30 in the data set with L1210 [2] is 7 mg/kg. Further, in the data set on L1210 [3], the Ratio was 5. For the same compound, the ILSmax in the data set with L1210 [4] came to 35 mg/kg.

On to `CCS(=O)(=O)OCCN(C)P1(=O)OCCC(OO)N1CCCl` (configuration not stated), for which the EC50 in the data set with L1210 [1] amounted to 0.8 µg/mL (≈ 2.1 µM). In the data set with L1210 [2], this compound registered an ILS30 of 10 mg/kg. Further, the Ratio in the data set with L1210 [3] came to 8. For the same compound, the ILSmax in the data set with L1210 [4] was 80 mg/kg.

`CS(=O)(=O)OCCN1C(OO)CCOP1(=O)NCCCl` (configuration not stated): the EC50 in the data set with L1210 [1] was found to be 0.8 µg/mL (≈ 2.27 µM). The compound also gave an ILS30 with L1210 [2] of 2 mg/kg. Moreover, the Ratio in the data set on L1210 [3] came to 38. In the data set on L1210 [4], the ILSmax was 75 mg/kg.

Turning to `CN(CCCl)P1(=O)OCCC(OO)N1CCOS(C)(=O)=O` (configuration not stated), the EC50 in the data set with L1210 [1] is 0.8 µg/mL (≈ 2.18 µM). This compound came in with an ILS30 with L1210 [2] of 2 mg/kg. For the same compound, the Ratio with L1210 [3] is 40; in the data set with L1210 [25], 6.6; in the data set with L1210 [26], 10; in the data set with L1210 [27] it was 4. Besides, in the data set with L1210 [4], the ILSmax worked out at 80 mg/kg. The LD10 came to 120 mg/kg in the data set on Mus musculus [5]; 134 mg/kg in the data set on Mus musculus [6]; 284 mg/kg in the data set with Mus musculus [7]; 66 mg/kg with Rattus norvegicus [8]; 41 mg/kg in the data set with Rattus norvegicus [9]; 238 mg/kg in the data set on Rattus norvegicus [10]. The MST in the data set on L1210 [11] was 6.6 days; in the data set with L1210 [12], 11.4 days; with L1210 [13], more than 26.1 days; with L1210 [14], more than 15.8 days. The increase in lifespan (ILS) at 2 mg/kg in the data set with L1210 [15] worked out at 44%. Further, the increase in lifespan (ILS) at 10 mg/kg with L1210 [16] is 147%. Moreover, the ILS at 50 mg/kg in the data set with L1210 [17] is more than 468%. Moreover, in the data set with L1210 [18], the increase in life span (ILS) at 100 mg/kg was more than 242%. Besides, the minimal effective dose came out at 15 mg/kg in the data set on L1210 [19], 10 mg/kg in the data set with L1210 [20] and 50 mg/kg with L1210 [21]. Moreover, the MTD in the data set with L1210 [22] was found to be 100 mg/kg; in the data set with L1210 [23] it was 100 mg/kg; with L1210 [24], 200 mg/kg. Moreover, the outcome in the data set on L1210 [28] was Active.

For the compound `O=P1(NCCCl)OCCCN1CCCl` (configuration not stated) [IFOSFAMIDE], the MST with L1210 [29] was 8.8 days; with L1210 [30], 11.9 days; with L1210 [31] it was more than 24.3 days; in the data set on L1210 [32], more than 16.5 days. In addition, the ILS at 70 mg/kg with L1210 [33] stood at 90%. For the same compound, the ILS at 130 mg/kg in the data set with L1210 [34] worked out at 158%. Moreover, in the data set with L1210 [35], the ILS at 330 mg/kg is more than 427%. In addition, the ILS at 530 mg/kg with L1210 [36] was more than 251%. For the same compound, the minimal effective dose with L1210 [19] stood at 280 mg/kg; in the data set with L1210 [21] it was 250 mg/kg. Besides, the MTD in the data set on L1210 [22] came out at 320 mg/kg; in the data set on L1210 [24], 250 mg/kg. For the same compound, the Ratio in the data set with L1210 [25] was 1.1; in the data set on L1210 [27] it was 1.
